Laboratory results published in US10322998B2, “Heterogeneous foldamers containing α, β, and/or γ-amino acids” (WISCONSIN ALUMNI RESEARCH FOUNDATION, priority 2002, dated 2019).
One block for each molecule: values may come before it.

Assay: Solubility, qualitative observations during synthesis and characterisation

Compound: CC(C)(CNC(=O)[C@H]1CC[C@H](NC(=O)[C@H]2CC[C@H](NC(=O)Cc3ccccc3)C2)C1)NC(=O)[C@H]1CCCN1C(=O)[C@H]1CC[C@H](NC(=O)[C@H]2CC[C@H](NC(=O)C(C)(C)C)C2)C1 [compound 3]
- solubility in CD2Cl2 (CD2Cl2): nearly insoluble

- solubility in organic solvents (organic solvents, crude product): poor solubility
Compound: CC(C)[C@@H](NC(=O)OC(C)(C)C)C(=O)N[C@@H]1CCCC[C@H]1C(=O)N[C@@H](C(=O)N[C@@H]1CCCC[C@H]1C(=O)OCc1ccccc1)C(C)C [2-28, Boc-D-Val-ACHC-D-Val-ACHC-Olin]

- solubility in common solvents (crude compound, water, methanol, acetonitrile, acetone, ethyl acetate, methylene chloride, DMSO): insoluble
Compound: CC(=O)NC1CCCC1C(=O)N[C@@H](Cc1ccccc1)C(=O)NC1CCCC1C(=O)N[C@@H](Cc1ccccc1)C(=O)NC1CCCC1C(=O)N[C@@H](Cc1ccccc1)C(N)=O (stereo partly shown) [Peptide 42]

- solubility in other solvents (solvents other than 1:1 CDCl3:CD3OD): poor solubility
Compound: COC(=O)[C@H]1CC[C@H](NC(=O)[C@H]2CC[C@H](NC(=O)[C@H]3CC[C@H](NC(=O)[C@H]4CC[C@H](NC(=O)OC(C)(C)C)C4)C3)C2)C1 [Compound 7]
